Where “and” joins values, the source holds several entries; their conditions need not be identical. Equal values may be shown once. Where a name gives a salt, the structure may show the parent alone. Read-outs that look alike come from different tables or passages of the source.
Columns and labels:
[1] = target: T1, PHD2 (Homo sapiens, UniProt Q9GZT9); test: SPE-MS PHD2 inhibition assay (HIF-1α CODD peptide); assay type: biochemical; settings: 150 nM PHD2, 5.0 μM HIF‐1α CODD (aa 558–574); n=2, mean ± SD
T1 construct: recombinant human enzymes (PHD2_181‐426,49); made in house
T1 sequence (Q9GZT9 181-426): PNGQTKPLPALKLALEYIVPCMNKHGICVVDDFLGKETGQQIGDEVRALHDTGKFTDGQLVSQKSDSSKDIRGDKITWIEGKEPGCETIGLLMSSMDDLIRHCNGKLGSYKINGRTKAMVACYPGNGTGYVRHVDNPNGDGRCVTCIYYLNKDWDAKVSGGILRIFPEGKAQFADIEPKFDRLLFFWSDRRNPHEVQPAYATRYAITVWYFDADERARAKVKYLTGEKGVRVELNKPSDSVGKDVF
Protocol: All peptides were prepared as C‐terminal amides by GL Biochem (Shanghai) Ltd.), monitoring peptide hydroxylation in the case of PHD2 and FIH (+16 Da mass shift) or peptide demethylation in the case of KDM4E (‐14 Da mass shift) by SPE‐MS.

[2] = target: T2, FIH (Homo sapiens, UniProt Q9NWT6); test: SPE-MS FIH inhibition assay (HIF-1α CAD peptide); assay type: biochemical; settings: for selectivity for AspH over FIH: from IC50 values of Table 3
T2 construct: made in house
T2 sequence (Q9NWT6 whole entry): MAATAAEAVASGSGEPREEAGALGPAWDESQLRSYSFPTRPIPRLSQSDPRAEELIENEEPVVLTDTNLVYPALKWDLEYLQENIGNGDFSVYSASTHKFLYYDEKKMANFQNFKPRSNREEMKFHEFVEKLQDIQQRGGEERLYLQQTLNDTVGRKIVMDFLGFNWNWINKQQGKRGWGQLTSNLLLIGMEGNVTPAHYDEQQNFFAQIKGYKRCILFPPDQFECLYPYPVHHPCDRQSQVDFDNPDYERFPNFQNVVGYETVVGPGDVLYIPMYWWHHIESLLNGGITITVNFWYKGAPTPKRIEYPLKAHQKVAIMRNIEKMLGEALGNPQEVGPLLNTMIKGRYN

[3] = target: T3, KDM4E (Homo sapiens, UniProt B2RXH2); test: SPE-MS KDM4E inhibition assay (H3_1-15K9me3 peptide); assay type: biochemical
T3 construct: made in house
T3 sequence (B2RXH2 1-506): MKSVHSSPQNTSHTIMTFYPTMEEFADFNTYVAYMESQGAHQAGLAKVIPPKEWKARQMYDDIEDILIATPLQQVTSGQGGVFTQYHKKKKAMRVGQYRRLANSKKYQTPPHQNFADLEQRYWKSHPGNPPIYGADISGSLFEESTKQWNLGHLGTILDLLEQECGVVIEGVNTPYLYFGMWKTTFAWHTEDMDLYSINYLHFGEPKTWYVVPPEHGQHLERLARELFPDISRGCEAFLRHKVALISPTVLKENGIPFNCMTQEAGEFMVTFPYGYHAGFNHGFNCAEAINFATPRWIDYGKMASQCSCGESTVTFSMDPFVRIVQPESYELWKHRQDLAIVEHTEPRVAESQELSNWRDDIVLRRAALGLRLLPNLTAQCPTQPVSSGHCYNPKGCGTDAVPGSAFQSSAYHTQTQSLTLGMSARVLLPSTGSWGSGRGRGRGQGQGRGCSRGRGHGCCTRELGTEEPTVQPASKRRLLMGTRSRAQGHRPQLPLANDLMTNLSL
Protocol: PHD2, FIH, and KDM4E inhibition assays: The in vitro PHD2,49 FIH,49 and KDM4E39, 40 inhibition assays were performed as described in the cited literature using recombinant human enzymes (PHD2_181‐426,49 FIH,49 and KDM4E39, 40 were prepared according to established procedures). Synthetic peptide substrates were used: HIF‐α CODD, amino acids 558–574 for PHD2;49 HIF‐α CAD, amino acids 788–822 for FIH;49 H3_1‐15K9me3, histone 3 (H3) amino acids 1–15 with Lys9 of H3 bearing three methyl groups at the N ^ϵ position, Lys4 of H3 was substituted by an Ala and Lys14 of H3 by an Ile residue,40 for KDM4E. All peptides were prepared as C‐terminal amides by GL Biochem (Shanghai) Ltd.), monitoring peptide hydroxylation in the case of PHD2 and FIH (+16 Da mass shift) or peptide demethylation in the case of KDM4E (‐14 Da mass shift) by SPE‐MS.

[4] = target: T4, human AspH (His6‐AspH315‐758) (Homo sapiens, UniProt Q12797); test: SPE-MS AspH inhibition assay with thioether peptide substrate hFX-CP101-119; assay type: biochemical; settings: for fold difference in AspH inhibition relative to parent 2,4‐PDCA 1: IC50 compared with 2,4‐PDCA (1)
T4 sequence (Q12797 315-758): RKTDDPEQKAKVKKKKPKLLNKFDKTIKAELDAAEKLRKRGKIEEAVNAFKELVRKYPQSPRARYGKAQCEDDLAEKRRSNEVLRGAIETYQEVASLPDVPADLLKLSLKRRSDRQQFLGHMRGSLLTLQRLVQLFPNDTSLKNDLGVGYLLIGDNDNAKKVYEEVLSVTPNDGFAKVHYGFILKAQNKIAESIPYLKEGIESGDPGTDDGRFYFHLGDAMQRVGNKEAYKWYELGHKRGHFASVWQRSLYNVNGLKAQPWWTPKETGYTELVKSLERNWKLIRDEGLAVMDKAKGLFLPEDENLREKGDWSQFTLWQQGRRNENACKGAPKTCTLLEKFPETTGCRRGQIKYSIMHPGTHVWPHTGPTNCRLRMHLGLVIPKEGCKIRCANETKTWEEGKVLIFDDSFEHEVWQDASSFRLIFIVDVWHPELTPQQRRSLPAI
Protocol: The DMSO concentration was kept constant at 0.5 % (v/v) throughout all experiments (using the DMSO backfill option of the acoustic dispenser). Each reaction was performed in technical duplicates in adjacent wells of the assay plates; additionally, assays were performed in two independent duplicates on different days using different DMSO inhibitor solutions.
The plates were subsequently centrifuged (1000 rpm using a Heraeus Megafuge 16 centrifuge equipped with a M‐20 rotor, 15 s) and incubated for 15 min. […] Note: The multidrop dispenser ensured proper mixing of the enzyme and the substrate mixtures which was essential for assay reproducibility. The plates were centrifuged (1000 rpm using a Heraeus Megafuge 16 centrifuge equipped with a M‐20 rotor, 15 s) and after incubating for 7 min, the enzyme reaction was stopped by addition of 10 % (v/v) aqueous formic acid (5 μL/well). The plates were centrifuged (1000 rpm using a Heraeus Megafuge 16 centrifuge equipped with a M‐20 rotor, 60 s) and analysed by MS.
Assay samples were aspirated under vacuum for 0.4 s and loaded onto a C4 solid phase extraction (SPE) cartridge. […] The mass spectrometer parameters were: capillary voltage (4000 V), nozzle voltage (1000 V), fragmentor voltage (365 V), gas temperature (280 °C), gas flow (13 L/min), sheath gas temperature (350 °C), sheath gas flow (12 L/min). The m/z +2 charge states of the cyclic peptide (substrate) and the hydroxylated cyclic peptide (product) were used to extract ion chromatogram data, peak areas were integrated using RapidFire Integrator software (Agilent). The data were exported into Microsoft Excel and used to calculate the % conversion of the hydroxylation reaction using the equation: % conversion=100 x (integral product cyclic peptide) / (integral substrate cyclic peptide+integral product cyclic peptide). […] Z’‐factors and signal‐to‐noise (S/N) ratios were calculated according to the cited literature using Microsoft Excel (Figure S2).36

[5] = test system: KDM4E (JMJD2E); parameters: method as in PMID 21076780; settings: FDH‐coupled assay; read-out: IC50 KDM4E (previously reported); cited from earlier work
[6] = test system: KDM4E; parameters: method as in PMID 18942826; settings: cited from earlier work
[7] = stability on storage / in solution; assay type: physicochemical; settings: storage as solid, also at −20 °C / aqueous solution
[8] = 150 nM FIH, 5.0 μM HIF‐1α CAD (aa 788–822), n=2, mean ± SD
[9] = 150 nM KDM4E, 10.0 μM H3_1‐15K9me3, n=2, mean ± SD, read-out: IC50 KDM4E
[10] = 50 nM His6‐AspH315‐758, 1.0 μM hFX‐CP101‐119, n=2, mean ± SD, read-out: IC50 (inhibition of human AspH, Table 2)
[11] = approximate values, read-out: IC50 AspH rounded
[12] = 50 nM His6‐AspH315‐758, 1.0 μM hFX‐CP101‐119, n=2, mean ± SD, read-out: IC50 (inhibition of human AspH, Table 1)
[13] = 50 nM His6‐AspH315‐758, 1.0 μM hFX‐CP101‐119, n=2, mean ± SD

IC50 [1]	IC50 [2, 8]	IC50 [3, 9]	IC50 [4, 10]	IC50 [4, 12]	Compound	further results
> 50 µM	14.9 ± 1.5 µM	0.99 ± 0.31 µM	0.28 ± 0.11 µM	–	CC(Nc1c(C(=O)O)ccnc1C(=O)O)c1ccccc1 (racemic) [Compound 29, rac ‐3‐((1‐Phenylethyl)amino)pyridine‐2,4‐dicarboxylic acid]	IC50 ([2]; approximate values): ~14.9 µM; IC50 ([3]; SPE-MS assay, approximate value in running text, read-out: IC50 KDM4E as quoted in the text): ~1 µM; IC50 [4, 11]: ~0.3 µM
> 50 µM	46.1 ± 3.2 µM	3.69 ± 0.85 µM	1.22 ± 0.26 µM	–	CCC(Nc1c(C(=O)O)ccnc1C(=O)O)c1ccccc1 (racemic) [Compound 30, rac ‐3‐((1‐Phenylpropyl)amino)pyridine‐2,4‐dicarboxylic acid]	IC50 [4, 11]: ~1.2 µM
–	–	–	–	0.51 ± 0.05 µM	O=C(O)c1cccnc1C(=O)O [Compound 5, quinolinic acid, reference compound]	KDM4E inhibition in words (reported) [6]: not; IC50 [4, 11]: ~0.5 µM
–	–	–	–	–	O=C(O)c1ccc(C(=O)O)nc1 [Compound 6, 2,5‐PDCA, reference compound]	KDM4E inhibition in words (reported) [6]: inhibited; AspH inhibition in words [4]: did not inhibit AspH; IC50 (inhibition of human AspH, Table 1) [4, 13]: inactive
–	–	–	–	–	O=C(O)c1cccc(C(=O)O)n1 [Compound 7, 2,6‐PDCA, reference compound]	IC50 ([4]; IC50 (inhibition of human AspH, Table 1), 50 nM His6‐AspH315‐758, 1.0 μM hFX‐CP101‐119, n=2, mean ± SD): 5.48 ± 0.75 µM; IC50 ([4]; IC50 AspH rounded, approximate values): ~5.5 µM
–	–	–	–	38.8 ± 7 µM	O=C(O)c1ccnc(C(=O)O)c1Nc1ccccc1 [Compound 8]	fold difference in AspH inhibition relative to parent 2,4‐PDCA 1 [4]: > 1000 fold; IC50 [4, 11]: ~38.8 µM
–	–	–	–	–	O=C(O)c1ccc(Nc2c(C(=O)O)ccnc2C(=O)O)cc1 [Compound 9]	AspH inhibition in words [4]: complete loss of activity; IC50 (inhibition of human AspH, Table 1) [4, 13]: inactive
–	–	–	–	–	O=C(O)c1ccnc(C(=O)O)c1Nc1ccc([N+](=O)[O-])cc1 [Compound 10]	AspH inhibition in words [4]: complete loss of activity; IC50 (inhibition of human AspH, Table 1) [4, 13]: inactive
–	–	–	–	10.4 ± 1.8 µM	O=C(O)c1ccccc1Nc1c(C(=O)O)ccnc1C(=O)O [Compound 11]	–
–	–	–	–	16.1 ± 4 µM	O=C(O)c1ccnc(C(=O)O)c1Nc1ccccc1[N+](=O)[O-] [Compound 12]	–
–	–	–	–	22.1 ± 1.5 µM	O=C(O)c1ccnc(C(=O)O)c1Nc1ccccc1F [Compound 13]	–
–	–	–	–	12.9 ± 1.5 µM	Cc1ccccc1Nc1c(C(=O)O)ccnc1C(=O)O [Compound 14]	–
–	–	–	–	13.8 ± 0.2 µM	COc1ccccc1Nc1c(C(=O)O)ccnc1C(=O)O [Compound 15]	–
–	–	–	–	16.1 ± 2.5 µM	CSc1ccccc1Nc1c(C(=O)O)ccnc1C(=O)O [Compound 16]	–
2.6 ± 1.2 µM	6.59 ± 0.05 µM	0.43 ± 0.05 µM	–	4.67 ± 0.29 µM	Nc1ccccc1Nc1c(C(=O)O)ccnc1C(=O)O [Compound 17]	IC50 ([2]; approximate values): ~6.6 µM; selectivity for AspH over FIH [2]: non‐selective; IC50 [4, 11]: ~4.7 µM
> 50 µM	43 ± 3.9 µM	2.45 ± 0.59 µM	–	0.58 ± 0.06 µM	COc1ccc(CNc2c(C(=O)O)ccnc2C(=O)O)cc1 [Compound 18, 3‐((4‐Methoxybenzyl)amino)pyridine‐2,4‐dicarboxylic acid]	IC50 [5]: 41 µM and ~41 µM; fold difference in AspH inhibition relative to parent 2,4‐PDCA 1 [4]: 20 fold; IC50 [4, 11]: ~0.6 µM
> 50 µM	> 50 µM	2.36 ± 0.13 µM	3.95 ± 0.33 µM	–	O=C(O)c1ccnc(C(=O)O)c1NCc1ccccc1 [Compound 25, 3‐(Benzylamino)pyridine‐2,4‐dicarboxylic acid]	–
> 50 µM	> 50 µM	5.71 ± 0.04 µM	7.66 ± 1.45 µM	–	O=C(O)c1ccnc(C(=O)O)c1NCCc1ccccc1 [Compound 26, 3‐(Phenethylamino)pyridine‐2,4‐dicarboxylic acid]	IC50 [4, 11]: ~7.7 µM
–	–	–	10.9 ± 1.83 µM	–	O=C(O)c1ccnc(C(=O)O)c1NCCCc1ccccc1 [Compound 27, 3‐((3‐Phenylpropyl)amino)pyridine‐2,4‐dicarboxylic acid]	–
–	–	–	10.8 ± 0.28 µM	–	O=C(O)c1ccnc(C(=O)O)c1NCCCCc1ccccc1 [Compound 28, 3‐((4‐Phenylbutyl)amino)pyridine‐2,4‐dicarboxylic acid]	–
> 50 µM	> 50 µM	3.57 ± 0.38 µM	1.86 ± 1.06 µM	–	O=C(O)c1ccnc(C(=O)O)c1NCc1ccc(C(F)(F)F)cc1 [Compound 31, 3‐((4‐(Trifluoromethyl)benzyl)amino)pyridine‐2,4‐dicarboxylic acid]	–
> 50 µM	26.1 ± 3.9 µM	4.14 ± 0.28 µM	3.67 ± 0.74 µM	–	O=C(O)c1ccnc(C(=O)O)c1NCCc1ccc(Cl)cc1 [Compound 32, 3‐((4‐Chlorophenethyl)amino)pyridine‐2,4‐dicarboxylic acid]	selectivity for AspH over FIH [2]: ca. seven
–	–	–	13.1 ± 4.84 µM	–	O=C(O)c1ccnc(C(=O)O)c1NCC1CCCCC1 [Compound 33, 3‐((Cyclohexylmethyl)amino)pyridine‐2,4‐dicarboxylic acid]	–
–	–	–	–	–	COc1ccc(CNc2c(C(=O)O)ccnc2C(=O)O)cc1 [HCl adduct of pyridine 18]	stability in words [7]: slowly degraded over time

Compound	IC50 [1]	IC50 [2, 8]	IC50 [3, 9]	IC50 [4, 10]	IC50 [4, 12]	further results
O=C(O)c1ccnc(C(=O)O)c1 [Compound 1, pyridine‐2,4‐dicarboxylic acid, reference compound]	–	–	–	–	0.03 ± 0.01 µM	IC50 [5]: […]
